Source: patent US11447465B2, “Pharmaceutical compounds for treatment of medical disorders” (Achillion Pharmaceuticals, Inc., priority 2017, dated 2022)

Molecular target: Human Factor D (Homo sapiens (Human), UniProt P00746)
Test: Human Factor D Assay
Format: biochemical
Settings: Table 5; Human Factor D 80 nM, substrate Z-L-Lys-SBzl; read-out: IC50 (Stars)
Method: Human Factor D (purified from human serum, Complement Technology, Inc.) at 80 nM final concentration is incubated with test compound at various concentrations for 5 min at room temperature in 50 mM Tris, 1M NaCl, pH 7.5. A synthetic substrate Z-L-Lys-SBzl and DTNB (Ellman's reagent) are added to final concentrations of 100 μM each. Absorbance at 405 nm (A405) is recorded at 30 second intervals for 30 min using a microplate spectrophotometer. IC50 values are calculated by nonlinear regression of Complement Factor D reaction rates as a function of test compound concentration.

Chain of Human Factor D (P00746 26-253): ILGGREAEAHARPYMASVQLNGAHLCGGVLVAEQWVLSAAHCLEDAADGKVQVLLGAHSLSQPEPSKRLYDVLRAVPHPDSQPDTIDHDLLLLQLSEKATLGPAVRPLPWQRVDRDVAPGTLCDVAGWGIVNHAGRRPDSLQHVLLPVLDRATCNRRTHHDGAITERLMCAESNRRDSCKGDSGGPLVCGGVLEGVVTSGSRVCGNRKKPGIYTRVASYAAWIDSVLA

IC50 [µM] | SMILES
< 1 | CC(=O)c1nn(CC(=O)N2C[C@H]3C[C@H]3[C@H]2C(=O)Nc2nc(Br)ccc2C2CC2)c2cc(C)sc12 [Compound T-10, (1R,2S,5S)-3-(2-(3-acetyl-5-methyl-1H-thieno[3,2-c]pyrazol-1-yl)acetyl)-N-(6-bromo-3-cyclopropylpyridin-2-yl)-3-azabicyclo[3.1.0]hexane-2-carboxamide]
< 1 | CC(=O)c1cc(C(=O)O)n(CC(=O)N2C[C@H](F)C[C@H]2C(=O)Nc2cccc(Br)n2)c1 [Compound T-17, 4-acetyl-1-(2-((2S,4R)-2-((6-bromopyridin-2-yl)carbamoyl)-4-fluoropyrrolidin-1-yl)-2-oxoethyl)-1H-pyrrole-2-carboxylic acid]
< 1 | CC(=O)c1ccn(CC(=O)N2C[C@H](F)C[C@H]2C(=O)Nc2cccc(Br)n2)n1 [Compound T-14, (2S,4R)-1-(2-(3-acetyl-1H-pyrazol-1-yl)acetyl)-N-(6-bromopyridin-2-yl)-4-fluoropyrrolidine-2-carboxamide]
< 1 | NC(=O)c1cc(C(F)(F)F)n(CC(=O)N2C[C@H](F)C[C@H]2C(=O)Nc2cccc(Br)n2)n1 [Compound T-15, 1-(2-((2S,4R)-2-((6-bromopyridin-2-yl)carbamoyl)-4-fluoropyrrolidin-1-yl)-2-oxoethyl)-5-(trifluoromethyl)-1H-pyrazole-3-carboxamide]

The remaining lines, values behind:

SMILES | IC50 [µM]
CC(=O)c1nn(CC(=O)N2[C@H](C(=O)Nc3nc(Br)ccc3C)C[C@@]3(C)C[C@@H]23)c2ccccc12 [Compound T-13, (1R,3S,5R)-2-(2-(3-acetyl-1H-indazol-1-yl)acetyl)-N-(6-bromo-3-methylpyridin-2-yl)-5-methyl-2-azabicyclo[3.1.0]hexane-3-carboxamide] | < 1
CC(=O)c1cn(CC(=O)N2[C@H](C(=O)NCc3cccc(Cl)c3F)C[C@@]3(CN4CCN(C)CC4)C[C@@H]23)c2cc(P(=O)(O)O)ccc12 [Compound T-44, (3-acetyl-1-(2-((1R,3S,5R)-3-((3-chloro-2-fluorobenzyl)carbamoyl)-5-((4-methylpiperazin-1-yl)methyl)-2-azabicyclo[3.1.0]hexan-2-yl)-2-oxoethyl)-1H-indol-6-yl)phosphonic acid] | < 1
CC(=O)c1cn(CC(=O)N2C3CC3(CN(C)C)C[C@H]2C(=O)NCc2cccc(Cl)c2F)c2cc(P(=O)(O)O)ccc12 (stereo partly drawn) [Compound T-46, (3-acetyl-1-(2-((3S)-3-((3-chloro-2-fluorobenzyl)carbamoyl)-5-((dimethylamino)methyl)-2-azabicyclo[3.1.0]hexan-2-yl)-2-oxoethyl)-1H-indol-6-yl)phosphonic acid] | 1 to 10

Same assay, conditions: Table 6; Human Factor D 80 nM, substrate Z-L-Lys-SBzl; read-out: IC5 (Stars)

SMILES | IC50 [µM]
CC(=O)c1nn(CC(=O)N2[C@H](C(=O)Nc3nc(Br)ccc3C3CC3)C[C@@]3(C)C[C@@H]23)c2ccc(O[C@@H]3CO[C@H]4[C@@H]3OC[C@H]4O)cc12 [Compound T-51, (1R,3S,5R)-2-(2-(3-acetyl-5-(((3R,3aR,6R,6aR)-6-hydroxy-hexahydrofuro[3,2-b]furan-3-yl)oxy)-1H-indazol-1-yl)acetyl)-N-(6-bromo-3-cyclopropyl-pyridin-2-yl)-5-methyl-2-azabicyclo[3.1.0]hexane-3-carboxamide] | < 1
CC(=O)c1nn(CC(=O)N2C(C(=O)Nc3nc(Br)ccc3C)C[C@]3(C)C[C@H]23)c2ccc(OCCS(=O)(=O)CC3(C)COC3)cc12 (stereo partly drawn) [Compound T-56, (1S,5S)-2-(2-(3-acetyl-5-(2-(((3-methyloxetan-3-yl)methyl)sulfonyl)ethoxy)-1H-indazol-1-yl)acetyl)-N-(6-bromo-3-methylpyridin-2-yl)-5-methyl-2-azabicyclo[3.1.0]hexane-3-carboxamide] | 1 to 10

Same assay, conditions: Table 7; read-out: IC5 (Stars)

IC50 [µM] | SMILES
1 to 10 | Cc1ncc(-c2cc(C#N)cc(CC(=O)N3[C@H](C(=O)Nc4nc(Br)ccc4C)C[C@@]4(C)C[C@@H]34)c2)cn1 [Compound T-115, (1R,3S,5R)-N-(6-bromo-3-methylpyridin-2-yl)-2-(2-(3-cyano-5-(2-methylpyrimidin-5-yl)phenyl)acetyl)-5-methyl-2-azabicyclo[3.1.0]hexane-3-carboxamide]
< 1 | COc1cc(CC(=O)N2[C@H](C(=O)Nc3nc(Br)ccc3C)C[C@@]3(C)C[C@@H]23)cc(-c2cnc(O)nc2)c1 [Compound T-101, (1R,3S,5R)-N-(6-bromo-3-methylpyridin-2-yl)-2-(2-(3-(2-hydroxypyrimidin-5-yl)-5-methoxyphenyl)acetyl)-5-methyl-2-azabicyclo[3.1.0]hexane-3-carboxamide]

The next lines start with the molecule.

SMILES | IC50 [µM]
Cc1cc2c(s1)c(C(N)=O)nn2CC(=O)N1[C@H](C(=O)Nc2nc(Br)ccc2C)C[C@@]2(CNC(=O)COCCOCCNC(=O)COCCOCCNC(=O)CC[C@H](NC(=O)CCCCCCCCCCCCCCCCC(=O)O)C(=O)O)C[C@@H]12 [Compound T-100, (S)-1-((1R,3S,5R)-3-((6-bromo-3-methylpyridin-2-yl)carbamoyl)-2-(2-(3-carbamoyl-5-methyl-1H-thieno[3,2-c]pyrazol-1-yl)acetyl)-2-azabicyclo[3.1.0]hexan-5-yl)-24-carboxy-3,12,21,26-tetraoxo-5,8,14,17-tetraoxa-2,11,20,25-tetraazatritetracontan-43-oic acid] | < 1
Cc1ccc(Br)nc1NC(=O)C1CC2(C)CC2N1C(=O)Cn1nc(NCCC(=O)O)c2ccncc21 (stereo not shown) [Compound T-90, 3-((1-(2-(3-((6-bromo-3-methylpyridin-2-yl)carbamoyl)-5-methyl-2-azabicyclo[3.1.0]hexan-2-yl)-2-oxoethyl)-1H-pyrazolo[3,4-c]pyridin-3-yl)amino)propanoic acid] | > 10
CC(=O)c1nn(CC(=O)N2[C@H](C(=O)Nc3nc(Br)ccc3C)C[C@@]3(Cn4cc(C5CC5)nn4)C[C@@H]23)c2cnccc12 [Compound T-83, (1R,3S,5R)-2-(2-(3-acetyl-1H-pyrazolo[3,4-c]pyridin-1-yl)acetyl)-N-(6-bromo-3-methylpyridin-2-yl)-5-((4-cyclopropyl-1H-1,2,3-triazol-1-yl)methyl)-2-azabicyclo[3.1.0]hexane-3-carboxamide] | < 1
CC(=O)c1nn(CC(=O)N2[C@H](C(=O)Nc3nc(Br)ccc3C)C[C@@]3(CNC(=O)COCCOCCNC(=O)COCCOCCNC(=O)CC[C@H](NC(=O)CCCCCCCCCCCCCCCCC(=O)O)C(=O)O)C[C@@H]23)c2ccccc12 [Compound T-85, (S)-1-((1R,3S,5R)-2-(2-(3-acetyl-1H-indazol-1-yl)acetyl)-3-((6-bromo-3-methylpyridin-2-yl)carbamoyl)-2-azabicyclo[3.1.0]hexan-5-yl)-24-carboxy-3,12,21,26-tetraoxo-5,8,14,17-tetraoxa-2,11,20,25-tetraazatritetracontan-43-oic acid] | < 1
Cc1ncc(-c2cc(CC(=O)N3C[C@H](F)C[C@H]3C(=O)Nc3cccc(-c4ccccc4Cl)c3F)cc(OCC(=O)O)c2)cn1 [Compound T-176, 2-(3-(2-((2S,4R)-2-((2′-chloro-2-fluoro-[1,1′-biphenyl]-3-yl)carbamoyl)-4-fluoropyrrolidin-1-yl)-2-oxoethyl)-5-(2-methylpyrimidin-5-yl)phenoxy)acetic acid] | 1 to 10
